Numbers after ± are expanded uncertainties.
Test: activity coefficient (dimensionless); of the first substance listed, at infinite dilution; xn = mol fraction of the nth substance listed
Conditions: Liquid, Chromatography, x1 = 0

| SMILES | activity coefficient (303.15 K) | activity coefficient (313.15 K) | activity coefficient (323.15 K) | activity coefficient (333.15 K) | activity coefficient (343.15 K) | activity coefficient (353.15 K) | activity coefficient (363.15 K) |
| --- | --- | --- | --- | --- | --- | --- | --- |
| C1COCCO1 [1,4-dioxane] + CCCCn1cc[n+](C)c1.F[B-](F)(F)F | 1.53 ± 0.13 | 1.54 ± 0.13 | 1.55 ± 0.13 | 1.56 ± 0.13 | 1.57 ± 0.13 | – | – |
| CC(C)CO [2-methyl-1-propanol] + CCCCn1cc[n+](C)c1.F[B-](F)(F)F | 2.63 ± 0.23 | 2.22 ± 0.19 | 1.86 ± 0.16 | 1.66 ± 0.14 | 1.53 ± 0.13 | – | – |
| CC(C)CCO [3-methylbutan-1-ol] + CCCCn1cc[n+](C)c1.F[B-](F)(F)F | 6.63 ± 0.57 | 5.74 ± 0.49 | 5.08 ± 0.44 | 4.53 ± 0.39 | 4.08 ± 0.35 | – | – |
| CC(C)=O [acetone] + CCCCn1cc[n+](C)c1.F[B-](F)(F)F | 1.16 ± 0.096 | 1.19 ± 0.098 | 1.21 ± 0.1 | 1.23 ± 0.1 | 1.25 ± 0.1 | – | – |
| CC#N [acetonitrile] + CCCCn1cc[n+](C)c1.F[B-](F)(F)F | 0.734 ± 0.062 | 0.742 ± 0.063 | 0.752 ± 0.063 | 0.757 ± 0.064 | 0.768 ± 0.065 | – | – |
| CCCCO [butan-1-ol] + CCCCn1cc[n+](C)c1.F[B-](F)(F)F | 4.14 ± 0.36 | 3.67 ± 0.32 | 3.3 ± 0.28 | 2.98 ± 0.26 | 2.72 ± 0.23 | – | – |
| CCC(C)O (stereo not given) [butan-2-ol] + CCCCn1cc[n+](C)c1.F[B-](F)(F)F | 3.85 ± 0.33 | 3.44 ± 0.3 | 3.12 ± 0.27 | 2.79 ± 0.24 | 2.56 ± 0.22 | – | – |
| O=C1CCCCC1 [cyclohexanone] + CCCCn1cc[n+](C)c1.F[B-](F)(F)F | – | – | 2.64 ± 0.23 | 2.62 ± 0.23 | 2.61 ± 0.23 | 2.58 ± 0.22 | 2.57 ± 0.22 |
| ClCCl [dichloromethane] + CCCCn1cc[n+](C)c1.F[B-](F)(F)F | 1.1 ± 0.091 | 1.15 ± 0.095 | 1.2 ± 0.099 | 1.24 ± 0.1 | 1.28 ± 0.11 | – | – |
| CCO [ethanol] + CCCCn1cc[n+](C)c1.F[B-](F)(F)F | 1.59 ± 0.14 | 1.39 ± 0.12 | 1.27 ± 0.11 | 1.17 ± 0.097 | 1.07 ± 0.088 | – | – |
| CCOC(C)=O [ethyl acetate] + CCCCn1cc[n+](C)c1.F[B-](F)(F)F | 3.3 ± 0.28 | 3.34 ± 0.29 | 3.36 ± 0.29 | 3.39 ± 0.29 | 3.41 ± 0.29 | – | – |
| CO [methanol] + CCCCn1cc[n+](C)c1.F[B-](F)(F)F | 0.813 ± 0.068 | 0.716 ± 0.061 | 0.646 ± 0.056 | 0.596 ± 0.053 | 0.529 ± 0.048 | – | – |
| CCCCCO [pentan-1-ol] + CCCCn1cc[n+](C)c1.F[B-](F)(F)F | 6.96 ± 0.6 | 5.91 ± 0.51 | 5.15 ± 0.45 | 4.56 ± 0.39 | 4 ± 0.34 | – | – |
| CCCO [propan-1-ol] + CCCCn1cc[n+](C)c1.F[B-](F)(F)F | 2.8 ± 0.24 | 2.48 ± 0.21 | 2.23 ± 0.19 | 1.96 ± 0.17 | 1.64 ± 0.14 | – | – |
| CC(C)O [propan-2-ol] + CCCCn1cc[n+](C)c1.F[B-](F)(F)F | 2.63 ± 0.23 | 2.22 ± 0.19 | 1.86 ± 0.16 | 1.66 ± 0.14 | 1.53 ± 0.13 | – | – |
| ClC(Cl)(Cl)Cl [tetrachloromethane] + CCCCn1cc[n+](C)c1.F[B-](F)(F)F | 5.73 ± 0.49 | 6.09 ± 0.53 | 6.27 ± 0.54 | 6.42 ± 0.55 | 6.52 ± 0.56 | – | – |
| ClC(Cl)Cl [trichloromethane] + CCCCn1cc[n+](C)c1.F[B-](F)(F)F | 1.11 ± 0.092 | 1.21 ± 0.1 | 1.28 ± 0.11 | 1.36 ± 0.11 | 1.43 ± 0.12 | – | – |

From the NIST ThermoML archive (doi:10.1021/je060305e)
